Test [1] has as its system multiple drug resistant acute promyelocytic leukemia cells (HL-60/RV). Put plainly: In vitro cytotoxicity, CellTiter-Glo 96 h, HL60/RV. The conditions noted are these: Homo sapiens, HL-60, read-out: Cytotoxic potency (IC50 class), HL60/RV. (In general: ATP-based viability assays read luminescence as a measure of living cells.)
Method: (§1) In vitro potency was assessed on multiple cancer cell lines. All cell lines were authenticated by STR profiling at IDEXX Bioresearch and cultured for no more than 2 months after resuscitation. Cells cultured in log-phase growth were seeded for 24 hours in 96-well plates containing 150 μl RPMI 1640 supplemented with 20% FBS. Serial dilutions of antibody-drug conjugates in cell culture media were prepared at 4× working concentrations, and 50 μl of each dilution was added to the 96-well plates. Following addition of test articles, cells were incubated with test articles for 4 days at 37° C. After 96 hours, growth inhibition was assessed by CellTiter-Glo® (Promega, Madison, Wis.) and luminescence was measured on a plate reader.
(§2) Cell viability was determined by CellTiter-Glo staining after 96 h exposure to ADC.
In test [2] the test system is B-lymphocyte cancer cells (SU-DHL-4). In words: In vitro cytotoxicity, CellTiter-Glo 96 h, SU-DHL-4. The conditions noted are these: Homo sapiens, SU-DHL-4, read-out: Cytotoxic potency as free drug, IC50, SU-DHL-4.
Method: as §1
(§3) Cell viability was determined by CellTiter-Glo staining after 96 h exposure to ADC. […] Ag1 is an antibody targeting a ubiquitous and readily internalizable antigen on cancer cells, Ag2 is cAC10 antibody targeting CD30(+) cancer cells, Ag3 is h1F6 antibody targeting CD70(+) cancer cells, Ag4 is hMEM102 antibody targeting CD48(+) cancer cells, Ag5 is h20F3 antibody targeting NTB-A expressing cancer cells, and h00 is a non-binding control antibody.
Test [3] deals with acute promyelocytic leukemia cells (HL-60). Put plainly: In vitro cytotoxicity, CellTiter-Glo 96 h, HL-60. The following applies: Homo sapiens, HL-60, read-out: Cytotoxic potency (IC50 class), HL-60.
Method: as §1, §3
Test [4] deals with melanoma cells (SK-MEL-5). In words: In vitro cytotoxicity, CellTiter-Glo 96 h, SK-MEL-5. The conditions noted are these: Homo sapiens, SK-MEL-5, read-out: Cytotoxic potency as free drug, IC50, SK-MEL-5.
Method: as §1, §3
In test [5] the test system is Hodgkin's lymphoma cells (L540cy). Put plainly: In vitro cytotoxicity, CellTiter-Glo 96 h, L540cy. The following applies: read-out: Cytotoxic potency (IC50 class), L540cy.
Method: as §1, §2
Test [6] has as its system multiple myeloma cells (MM.1R). Put plainly: In vitro cytotoxicity, CellTiter-Glo 96 h, MM.1R. The conditions noted are these: read-out: Cytotoxic potency (IC50 class), MM.1R.
Method: as §1, §3
Test [7] has as its system renal carcinoma cells (786-O). Put plainly: In vitro cytotoxicity, CellTiter-Glo 96 h, 786-O. The conditions noted are these: Homo sapiens, 786-0, read-out: Cytotoxic potency (IC50 class), 786-O.
Test [8] deals with B-lymphocyte cancer cells (U266). Put plainly: In vitro cytotoxicity, CellTiter-Glo 96 h, U266. The conditions noted are these: Homo sapiens, U-266, read-out: Cytotoxic potency as free drug, IC50, U266.
Method: as §1, §3
In test [9] the test system is Burkitt's lymphoma cells (Ramos). Put plainly: In vitro cytotoxicity, CellTiter-Glo 96 h, Ramos. The conditions noted are these: Homo sapiens, read-out: Cytotoxic potency as free drug, IC50, Ramos.
Test [10] relates to pancreatic cancer cells (BxPC3). In words: In vitro cytotoxicity, CellTiter-Glo 96 h, BxPC3. The following applies: Homo sapiens, BXPC-3, read-out: Cytotoxic potency (IC50 class), BxPC3.
Method: as §1, §2
Test [11] relates to acute myeloid leukemia cells (MOLM13). In words: In vitro cytotoxicity, CellTiter-Glo 96 h, MOLM13. The conditions noted are these: Homo sapiens, MOLM-13, read-out: Cytotoxic potency as free drug, IC50, MOLM13.
Method: as §1, §2

This is an account of results in patent publication US20190343828A1, “CAMPTOTHECIN PEPTIDE CONJUGATES” (SEATTLE GENETICS, INC., priority 2018, published 2019).

Structures are written as SMILES.

Consider `CC[C@@]1(O)C(=O)OCc2c1cc1n(c2=O)Cc2c-1nc1cc3c(cc1c2CNCCOCCOCCN)OCO3` [Compound 5y], for which the IC50 in test [1] lay within 10 to 100 nM; in test [2] it was 1 to 10 nM; in [3] it was 10 to 100 nM; in [4], 1 to 10 nM; in test [5], 1 to 10 nM; in test [6], 1 to 10 nM. The IC50 in test [7] lay within 1 to 10 nM; in test [8] it was 1 to 10 nM; in test [9] it was 0.1 to 1 nM; in test [10], 1 to 10 nM; in test [11], 1 to 10 nM.
`CCc1c2c(nc3cc4c(cc13)OCO4)-c1cc3c(c(=O)n1C2)COC(=O)[C@]3(O)CC` [Compound 6e]: the IC50 in test [1] was in the range of 1 to 10 nM; in test [2], 0.1 to 1 nM; in test [3] it was 1 to 10 nM; in [4], 1 to 10 nM; in [5], 0.1 to 1 nM; in test [6], 0.1 to 1 nM. The IC50 in test [7] lay within 0.1 to 1 nM; in [8] it was 1 to 10 nM; in [9], 0.1 to 1 nM; in test [10], 1 to 10 nM; in test [11] it was 1 to 10 nM.
With `CC[C@@]1(O)C(=O)OCc2c1cc1n(c2=O)Cc2c-1nc1cc3c(cc1c2CNCCCCO)OCO3` [Compound 5f], the IC50 in test [1] fell in the range of 100 to 1000 nM; in test [2], 1 to 10 nM; in test [3], 10 to 100 nM; in test [4], 1 to 10 nM; in [5], 1 to 10 nM; in [6], 1 to 10 nM. Moreover, the IC50 fell in the range of 1 to 10 nM in [7]; 1 to 10 nM in test [8]; 1 to 10 nM in test [9]; 10 to 100 nM in [10]; 1 to 10 nM in test [11].
As to `CC[C@@]1(O)C(=O)OCc2c1cc1n(c2=O)Cc2c-1nc1cc3c(cc1c2CNC1CCCCC1)OCO3` [Compound 5d], the IC50 in test [1] is 1 to 10 nM; in test [2], 1 to 10 nM; in test [3] it was 10 to 100 nM; in test [4], 1 to 10 nM; in [5], 1 to 10 nM; in test [6] it was 1 to 10 nM. In addition, the IC50 in [7], in test [8], in test [9], in test [10] and in test [11] was 1 to 10 nM throughout.
For the compound `CC[C@@]1(O)C(=O)OCc2c1cc1n(c2=O)Cc2c-1nc1cc3c(cc1c2CN(C)CCNC)OCO3` [Compound 5x], the IC50 in test [1] lay in the range of 100 to 1000 nM; in test [2], 10 to 100 nM; in [3], 100 to 1000 nM; in test [4] it was 10 to 100 nM; in [5], 10 to 100 nM; in [6] it was 10 to 100 nM. Further, the IC50 in [7] lay within 10 to 100 nM; in [8], 10 to 100 nM; in test [9], 10 to 100 nM; in test [10], 100 to 1000 nM; in [11], 10 to 100 nM.
In the case of `CC[C@@]1(O)C(=O)OCc2c1cc1n(c2=O)Cc2c-1nc1cc3c(cc1c2CNCCN(C)CCO)OCO3` [Compound 5w], the IC50 in [1] fell in the range of 10 to 100 nM; in test [2], 10 to 100 nM; in test [3], 100 to 1000 nM; in test [4], 10 to 100 nM; in [5] it was 10 to 100 nM; in [6], 10 to 100 nM. Moreover, the IC50 in [7] fell in the range of 10 to 100 nM; in [8], 10 to 100 nM; in test [9], 1 to 10 nM; in test [10], 10 to 100 nM; in test [11], 10 to 100 nM.
On to `CC[C@@]1(O)C(=O)OCc2c1cc1n(c2=O)Cc2c-1nc1cc3c(cc1c2C1CC1)OCO3` [Compound 6m], for which the IC50 in [1] lay in the range of 1 to 10 nM; in [2], 0.1 to 1 nM; in test [3] it was 10 to 100 nM; in test [4], 1 to 10 nM; in test [5], 0.1 to 1 nM; in test [6] it was 0.1 to 1 nM. Also, the IC50 in [7] lay in the range of 0.1 to 1 nM; in test [8], 1 to 10 nM; in test [9], 0.1 to 1 nM; in [10], 1 to 10 nM; in test [11], 1 to 10 nM.
Take `CCC(C)c1c2c(nc3cc4c(cc13)OCO4)-c1cc3c(c(=O)n1C2)COC(=O)[C@]3(O)CC` (stereo partly shown) [Compound 6b]: the IC50 in test [1], in [2], in [4], in test [5], in test [6] and in [7] was 1 to 10 nM in each case. Moreover, the IC50 in test [8], in test [9], in test [10] and in [11] was 1 to 10 nM in each case.
`CC[C@@]1(O)C(=O)OCc2c1cc1n(c2=O)Cc2c-1nc1cc3c(cc1c2CNCC(C)C)OCO3` [Compound 5i]: the IC50 in [1] was in the range of 1 to 10 nM; in test [2], 1 to 10 nM; in test [3], 10 to 100 nM; in [4] it was 1 to 10 nM; in [5], 1 to 10 nM; in [6] it was 1 to 10 nM. Besides, the IC50 in [7], in test [8], in test [9], in test [10] and in test [11] was 1 to 10 nM in each case.
As for `CC[C@@]1(O)C(=O)OCc2c1cc1n(c2=O)Cc2c-1nc1cc3c(cc1c2CNC(=O)CCN)OCO3` [Compound 4d], the IC50 was in the range of 10 to 100 nM in test [2]; 100 to 1000 nM in [3]; 10 to 100 nM in [4]; 100 to 1000 nM in [5]; 1 to 10 nM in test [6]; 100 to 1000 nM in test [7]. The IC50 in [8] was in the range of 10 to 100 nM; in test [9], 10 to 100 nM; in test [10], 100 to 1000 nM; in test [11], 10 to 100 nM.
Take `CC[C@@]1(O)C(=O)OCc2c1cc1n(c2=O)Cc2c-1nc1cc3c(cc1c2CNc1ccc(F)cc1)OCO3` [Compound 5r]: the IC50 fell in the range of 10 to 100 nM in test [1]; 1 to 10 nM in test [2]; 10 to 100 nM in [3]; 1 to 10 nM in test [4]; 1 to 10 nM in test [5]; 1 to 10 nM in [6]. For the same compound, the IC50 in [7] was in the range of 1 to 10 nM; in [8], 1 to 10 nM; in test [9], 1 to 10 nM; in [10], 1 to 10 nM; in test [11] it was 10 to 100 nM.
For the compound `CC[C@@]1(O)C(=O)OCc2c1cc1n(c2=O)Cc2c-1nc1cc3c(cc1c2-c1ccc(F)cc1)OCO3` [Compound 6], the IC50 in [1] lay in the range of 0.1 to 1 nM; in test [2], 0.1 to 1 nM; in test [4], 1 to 10 nM; in test [5], 0.1 to 1 nM; in test [6] it was 1 to 10 nM; in [7] it was 1 to 10 nM. For the same compound, the IC50 fell in the range of 1 to 10 nM in test [8], 0.1 to 1 nM in test [9], 1 to 10 nM in [10] and 0.1 to 1 nM in test [11].
Take `CC[C@@]1(O)C(=O)OCc2c1cc1n(c2=O)Cc2c-1nc1cc3c(cc1c2C(C)C)OCO3` [Compound 6c]: the IC50 was 1 to 10 nM in test [1]; 0.1 to 1 nM in [2]; 1 to 10 nM in test [4]; 1 to 10 nM in test [5]; 1 to 10 nM in test [6]; 1 to 10 nM in test [7]. The IC50 in test [8] lay in the range of 1 to 10 nM; in test [9], 0.1 to 1 nM; in test [10] it was 1 to 10 nM; in test [11] it was 1 to 10 nM.
Regarding `CC[C@@]1(O)C(=O)OCc2c1cc1n(c2=O)Cc2c-1nc1cc3c(cc1c2CNCCNC(C)C)OCO3` [Compound 5m], the IC50 fell in the range of 10 to 100 nM in [2]; 100 to 1000 nM in [3]; 100 to 1000 nM in [4]; 10 to 100 nM in test [5]; 10 to 100 nM in test [6]; 10 to 100 nM in [7]. Also, the IC50 in test [8] lay in the range of 10 to 100 nM; in test [9] it was 1 to 10 nM; in [10] it was 100 to 1000 nM; in test [11], 10 to 100 nM.
Consider `CC[C@@]1(O)C(=O)OCc2c1cc1n(c2=O)Cc2c-1nc1cc3c(cc1c2CNC(=O)[C@@H](N)CCC(=O)O)OCO3` [Compound 4e], for which the IC50 in test [5], in test [9], in test [10] and in test [11] was 100 to 1000 nM throughout.
As for `CC[C@@]1(O)C(=O)OCc2c1cc1n(c2=O)Cc2c-1nc1cc3c(cc1c2CNC(=O)CN)OCO3` [Compound 4b], the IC50 in test [2] lay in the range of 10 to 100 nM; in [3], 100 to 1000 nM; in test [4], 100 to 1000 nM; in test [5] it was 10 to 100 nM; in [6], 10 to 100 nM; in test [7], 100 to 1000 nM. In addition, the IC50 fell in the range of 10 to 100 nM in test [8], 10 to 100 nM in test [9], 100 to 1000 nM in test [10] and 10 to 100 nM in [11].
